Molecules are shown by their SMILES.

Assay [1] deals with muscarinic acetylcholine receptor. Nature of the assay: Brain muscarinic acetylcholine receptor density in aged rats (dual-site competitive ligand binding). The assay is classed as in vivo, rat. The note with it: 18 mg kg−1 day−1 oral, 2-3 months. How it is done:
(§1) Aged Sprague-Dawley rats aged were divided into different groups, one control and groups treated for 2-3 months with either sarsasapogenin, episarsasapogenin cathylate or smilagenin (18 mg kg^−1 day^−1, n=10). A control group (n=14) of untreated young rats was also included in the study. The daily dose of drug was mixed in a minimum amount of food and was administered every morning separately to each rat.
Muscarinic acetylcholine receptor density in the brain was measured. Tissue was prepared as follows: brains were removed quickly after decapitation, frozen in dry ice, and transferred to a freezer. The brains were homogenised and the pellet was finally suspended in buffer.
The dual-site competitive ligand binding assay was used to measure muscarinic acetylcholine receptor density.

Assay [2] deals with dopamine (D) 1 receptor. Nature of the assay: Dopamine D1 receptor density in aged rats. The format is in vivo, rat. The note with it: aged rats treated 3 months; aged untreated 129.2±36.8, young 157.5±33.2. The protocol:
as §1
(§2) By contrast, smilagenin and sarsasapogenin treatment in aged rats for 3 months restored the D1 and D2 receptor density (smilagenin 177±10.9; 217±45.7 fmol/mg protein; sarsasapogenin 172.0±44.0; 206.4±60.5 respectively).

For assay [3], the system named is rat primary spinal motor neurones. Nature of the assay: Glutamate-induced neurodegeneration in spinal motor neurones (LDH). The format is cell-based. The note with it: control 100 ± 1. The protocol:
The objective of this study was to examine the effects of sarsasapogenin and smilagenin on the survival of rat primary spinal motor neurones exposed to glutamate, which is known to induce neurodegeneration in this model of motor neurodegeneration.
Rat motor neurones were prepared according to the method described by (Martinou et al, Neuron, 8, 737-744, 1992). On day 10, medium was removed and the cultures were exposed to glutamate (4 microM) for 10 min at 37° C. in defined medium. After the glutamate exposure, cultures were washed with Dulbecco modified Eagle medium at 37° C. then placed in fresh culture medium containing test compounds. After 48 h, the extent of spinal motor neurone degeneration was determined by measuring the amount of lactate dehydrogenase (LDH) released into the culture medium as above.

Assay [4] deals with dopamine (D) 2 receptor. In words: Dopamine D2 receptor density in aged rats. The assay is classed as in vivo, rat. The note with it: aged rats treated 3 months; aged untreated 153.8±40.5, young 200.6±50.9. How it is done: as §1, §2

Consider `C[C@@H]1CC[C@@]2(OC1)O[C@H]1C[C@H]3[C@@H]4CC[C@@H]5C[C@@H](O)CC[C@]5(C)[C@H]4CC[C@]3(C)[C@H]1[C@@H]2C` [smilagenin], for which, in assay [1], the “Muscarinic acetylcholine receptor density in brain” value is “significantly restored”. Moreover, the D1 receptor density in assay [2] worked out at 177±10.9 fmol/mg protein. Besides, the results for the “Glutamate-induced neurodegeneration in spinal motor neurones, Mean ± s.e.m (%)” value in assay [3] (0.03 nM for 48 h after glutamate 4 microM 10 min), in assay [3] (3 nM for 48 h after glutamate 4 microM 10 min) and in assay [3] (300 nM for 48 h after glutamate 4 microM 10 min) were 128 ± 4%, 154 ± 1% and 144 ± 4%, respectively. The compound further came in with a D2 receptor density in assay [4] of 217±45.7 fmol/mg protein.

Source of the values: patent US20110190249A1, “THERAPEUTIC METHODS AND USES OF SAPOGENINS AND THEIR DERIVATIVES” (PHYTOPHARM PLC, priority 2002, published 2011).
